Assay results from a melting point compilation (Tetko et al.; mined from patent text by program, amines drawn as free bases though some values may be those of a salt).

SMILES	melting point [°C]
CC(=O)Oc1c2c(c3ccccc3c1OC(C)=O)N(C(C)=O)c1ccccc1S2	213 to 214
CC#CCOc1ccc(SC(C(=O)O)c2cccc(Cl)c2)cc1 (stereo not given)	64
COc1nc2cc(C)c(C)c(N)c2nc1OC	166 to 167
CCC(O)(CC)Cc1ccc(NC(=O)OCc2ccccc2)cc1	99 to 100
NS(=O)(=O)c1ccc(NS(=O)(=O)/C=C/c2ccccc2)cc1	171 to 173
N#Cc1ccc(CN2C(=O)C3(COc4cc5c(cc43)OCO5)c3ccccc32)o1 (stereo not given)	167 to 169
COc1cc(Cc2cnc(N)nc2N)cc2c1OC(C)(C)C=C2c1cccs1	> 260
CCCc1c(OCCCCCC(=O)c2cc(OC)c(OC)cc2F)ccc(C(=O)OC)c1O	127 to 129
C=CCc1cc2cc(CC=C(C)C)c(=O)[nH]c2c(CC=C)c1O	241 to 244
O=S1(=O)c2ccccc2Nc2ccc(-c3ccccc3)cc21	269 to 272
Cc1ncc(-c2ccc([C@H](C)N3CC[C@](CC(C)(C)O)(c4ccccc4)OC3=O)cc2)cn1	112 to 115
COc1cc(C(=O)O)ccc1Cn1cc(CC(C)C(=O)N(C)C)c2ccc(C(=O)NCC3CCCC3)cc21 (stereo not given)	120 to 122
CC(C)n1nc(-c2c(-c3ccccc3)nn3ccc(OCC(=O)N4CCN(C(=O)N(C)C)CC4)cc23)ccc1=O	151 to 152
NNc1ccc(C2CCCCC2)cc1	115 to 116
CC1(C)Oc2ccc(S(=O)(=O)C(F)(F)F)cc2[C@@H](N2Cc3c(cccc3[N+](=O)[O-])C2=O)[C@@H]1O (relative stereo)	292 to 295
O=c1cc(CO)oc2cc(O)ccc12	250 to 252
NC(=O)c1cc2c(-c3cccc(NC(=O)c4cccc(C(F)(F)F)c4)c3)ncnc2s1	275 to 278
COc1cc(OC)nc(C2(C#N)OC(=O)c3c(-c4ccccc4)ccnc32)n1 (stereo not given)	196 to 198
COc1ccc2c(=O)c(OS(C)(=O)=O)cn(C)c2c1	163
C#CCNC(=O)c1ncn2c1CN(C)C(=O)c1cc(F)ccc1-2	205 to 206
COc1ccc(CSCCNC(=O)c2c(Cl)cccc2Cl)cc1	80 to 81
CNC(=O)c1cccc(I)c1	94 to 97
CC(C)n1nc(-c2sc(N)nc2-c2cccc(Cl)c2)ccc1=O	236 to 237
COc1cccc(C(=O)N2CCc3cc(S(=O)(=O)N4CCN(c5cccc(Cl)c5)CC4)ccc32)c1	155 to 156

SMILES	melting point [°C]
COc1ccc(-c2ocnc2-c2cc(OC)c([N+](=O)[O-])c(OC)c2)cc1O	186 to 188
OC[C@H]1O[C@@H]1c1cc(F)cc(F)c1	48 to 50
COc1cc(F)ccc1-c1ccc(S(=O)(=O)N2c3ccccc3CC2C(=O)NCCOc2ccc(C(=O)O)cc2)cc1 (stereo not given)	102
CCCCCC(=O)Nc1c(C)c(C)c2c(c1C)C(c1ccc(C)cc1)C(C)(C)O2 (stereo not given)	96 to 97
COC(=O)C(=O)C1C(=O)C(=O)C(CCCCCCC(=O)O)C1=O (stereo not given)	127 to 129
O=c1[nH]c2ccc(CCN3CCN(c4cccc5cccnc45)CC3)cc2o1	200
COC(=O)/C=C/c1nc2ccc(Cl)cc2c(=O)o1	117 to 118
COc1ccc(S(=O)(=O)Nc2cccnc2Nc2ccc(O)c(C)c2)cc1	89 to 91
COC(=O)c1ccc2sc3ccccc3c2c1	127 to 129
Cc1ccc2c(c1)CCCN2CC(NS(=O)(=O)c1c(Cl)cc(Cl)cc1Cl)C(C)C (stereo not given)	144 to 145
CC(=O)[NH+]([O-])C[C@@H]1CN(c2ccc(N3CCN(S(=O)(=O)CC#N)CC3)c(F)c2)C(=O)O1 (stereo not given in full)	153 to 156
CCOC(=O)CC(=O)c1ccc(CCNC(C)=O)cc1	89 to 92
CSCC(=O)Nc1cccc(C(F)(F)F)c1	75 to 77
O=C(Nc1c[nH]nc1C(=O)NCCc1c[nH]c2ccccc12)c1ccccn1	250 to 251
Cc1oc(-c2ccccc2)nc1COc1ccc(CCCc2nnn[nH]2)cn1	137 to 138
Cc1ccc(-c2ccc3c(c2)C=C(C(=O)Nc2ccc(CN(C)C4CCOCC4)cc2)CO3)cc1	143 to 145
CS(=O)(=O)Nc1cccc(C2=Nc3ccc(-c4ccc(F)cc4)cc3NC(=O)C2)c1	232 to 235
O=C(NCCCCC1CCSS1)N1CCSCC1 (stereo not given)	80 to 81
O=C1CCC2(CC2)C(=O)C1	116 to 118
O=C1CCC(N2Cc3c(OCc4ccc5occc5c4)cccc3C2=O)C(=O)N1 (stereo not given)	168 to 170
CCC(=O)C1=C(O)CC(c2c(C)c(C)c3c(c2C)OC(C)(C)C3)CC1=O (stereo not given)	74 to 76
Cc1nc2ccsc2c2ccccc12	74 to 76
CN1CN(C)c2nc3n(Cc4ccccc4)c(=O)cc(O)n3c2C1=O	176 to 182
O=C(COC(=O)Cc1ccccc1Nc1c(Cl)cccc1Cl)NCCO[N+](=O)[O-]	81 to 83

SMILES	melting point [°C]
CCCCCCCCCCCCCCc1ccc(S(=O)(=O)Cl)cc1	32 to 33
CNCc1ccc2cc(O)ccc2c1	168 to 169
COC(=O)C1=C(C)N(CCOC(=O)c2ccccc2)C(=O)NC1c1ccc2ccccc2c1 (stereo not given)	116
CCCc1nc2c(N)nc3cc(OCCCNS(=O)(=O)CCc4cccc5ccccc45)ccc3c2n1CC(C)C	164 to 168
CC(C)CS(=O)(=O)c1ccc(F)c(C#Cc2cc(Cl)ccc2OCC(=O)O)c1	141 to 143
Cc1cc(-c2nc3cccnn3c2-c2ccnc(NC(=O)c3cccc4cccnc34)c2)ccc1F	229 to 230
O=[N+]([O-])c1cc(S(=O)(=O)N2CCC(O)C2)sc1Cl (racemic)	96
O=C(O)c1cc(Cl)nn2nnnc12	225
Oc1nc2ccnn2c2ncccc12	> 300
Cc1cc(-c2ccc(Cl)cc2)nc2c(C(=O)O)cnn12	233 to 235
C=Cc1cc(Br)c(O)c(Br)c1	75
CCCOc1ccccc1-c1nc2nc(SC)nnc2c(=O)[nH]1	247 to 249
COCCNC(=O)c1ccc(SC)c([N+](=O)[O-])c1	117 to 118
CCC1(C(F)(F)F)C(=O)NC(=O)NC1=O	208 to 209
CC(=O)Oc1ccc(C(=O)Nc2ncc(S(C)(=O)=O)s2)cc1	280 to 281
CC(=O)N(C)c1c(C(=O)c2ccccc2)[nH]c2cc(Cl)ccc12	232 to 235
Nc1cc(C(F)(F)C(F)(F)C(F)(F)C=CC(F)(F)C(F)(F)C(F)(F)c2ccc(O)c(N)c2)ccc1O	187 to 188
CCOc1ccc(-c2ccc3c(c2)C=C(C(=O)OC)CCS3(=O)=O)cc1	173 to 175
C=Cn1c(C)c(C)c2cnnc(OCc3ccccc3)c21	85 to 86
CC(C)c1ccc(OC(Cc2ccc(OCCNC(=O)c3ccc(-c4ccc(F)cc4)nc3)cc2)C(=O)O)cc1 (stereo not given)	199 to 200
CC(=O)c1cccc(NC(=O)NCCN(CCNC(=O)Nc2cccc(C(C)=O)c2)CCNC(=O)Nc2cccc(C(C)=O)c2)c1	193
O=C1c2c(Cl)cccc2-n2cnc(-c3nc(C4CCCC4)no3)c2[C@@H]2CCCN12	177 to 178
